Measured values taken from PubChem BioAssay (NCI).
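These data come from cells grown in 96-well plates and exposed to compound for 48 hours at five concentrations. GI50 is the concentration that inhibits growth by half. Definition used: TGI = concentration required for complete inhibition of growth.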

Experiments:
Test in all cases: NCI-60 cell line screen, 48 h
HS 578T breast = tested on: HS 578T breast
OVCAR-3 ovarian = tested on: OVCAR-3 ovarian
NCI-H460 lung = tested on: NCI-H460 lung
A498 renal = tested on: A498 renal
HCT-15 colon = tested on: HCT-15 colon
TK-10 renal = tested on: TK-10 renal
MOLT-4 leukemia = tested on: MOLT-4 leukemia
EKVX NSCLC = tested on: EKVX NSCLC
UACC-62 melanoma = tested on: UACC-62 melanoma
SK-MEL-28 melanoma = tested on: SK-MEL-28 melanoma

COc1ccccc1/C=C/C(=O)/C=C/c1ccccc1OC
GI50 (HS 578T breast): 3.4 µM
TGI (HS 578T breast): 39.2 µM
GI50 (OVCAR-3 ovarian): 1.68 µM
TGI (OVCAR-3 ovarian): 3.68 µM
GI50 (NCI-H460 lung): 2.16 µM
TGI (NCI-H460 lung): 5.64 µM
GI50 (A498 renal): 1.54 µM
TGI (A498 renal): 3.06 µM
GI50 (HCT-15 colon): 2.27 µM
TGI (HCT-15 colon): 10.5 µM
GI50 (TK-10 renal): 3.52 µM
TGI (TK-10 renal): 8.83 µM
GI50 (MOLT-4 leukemia): 2.4 µM
TGI (MOLT-4 leukemia): 9.06 µM
GI50 (EKVX NSCLC): 2.42 µM
TGI (EKVX NSCLC): 6.22 µM
GI50 (UACC-62 melanoma): 1.65 µM
TGI (UACC-62 melanoma): 3.41 µM
GI50 (SK-MEL-28 melanoma): 1.67 µM
TGI (SK-MEL-28 melanoma): 3.18 µM

Cc1cc(N(CCCl)CCCl)ccc1/C=N/NC(=O)Cc1cc(=O)oc2cc(O)ccc12
TGI (HS 578T breast): 56.3 µM
TGI (OVCAR-3 ovarian): 72.8 µM
TGI (NCI-H460 lung): 30.5 µM
TGI (A498 renal): 45.3 µM
TGI (HCT-15 colon): > 100 µM
TGI (MOLT-4 leukemia): 50.4 µM
TGI (EKVX NSCLC): 82.9 µM
TGI (UACC-62 melanoma): 13.2 µM
TGI (SK-MEL-28 melanoma): 41.9 µM

COc1ccccc1-c1cc(=O)c2ccc(OC)c(OC)c2o1
TGI (HS 578T breast): > 100 µM
TGI (OVCAR-3 ovarian): > 100 µM
TGI (NCI-H460 lung): > 100 µM
TGI (A498 renal): > 100 µM
TGI (HCT-15 colon): > 100 µM
TGI (TK-10 renal): > 100 µM
TGI (MOLT-4 leukemia): > 100 µM
TGI (EKVX NSCLC): > 100 µM
TGI (UACC-62 melanoma): > 100 µM
TGI (SK-MEL-28 melanoma): > 100 µM

C/C(=N\N=C(N)N)C(CN(C)C)C(c1ccccc1)c1c(O)c2ccccc2oc1=O (stereo unspecified)
TGI (HS 578T breast): > 100 µM
TGI (OVCAR-3 ovarian): > 100 µM
TGI (NCI-H460 lung): > 100 µM
TGI (A498 renal): > 100 µM
TGI (HCT-15 colon): > 100 µM
TGI (TK-10 renal): > 100 µM
TGI (MOLT-4 leukemia): > 100 µM
TGI (EKVX NSCLC): > 100 µM
TGI (UACC-62 melanoma): > 100 µM
TGI (SK-MEL-28 melanoma): > 100 µM

Nc1nc(-c2cccc([N+](=O)[O-])c2)cc(-c2cc(-c3cccc([N+](=O)[O-])c3)nc(N)n2)n1
TGI (HS 578T breast): > 100 µM
TGI (OVCAR-3 ovarian): > 100 µM
TGI (NCI-H460 lung): > 100 µM
TGI (A498 renal): > 100 µM
TGI (HCT-15 colon): > 100 µM
TGI (TK-10 renal): > 100 µM
TGI (MOLT-4 leukemia): > 100 µM
TGI (EKVX NSCLC): > 100 µM
TGI (UACC-62 melanoma): > 100 µM
TGI (SK-MEL-28 melanoma): > 100 µM

COc1ccc2c(c1)/C(=N/OC(C)=O)c1c-2c(=O)[nH]c2ccccc12
GI50 (HS 578T breast): 8.88 µM
TGI (HS 578T breast): 31.4 µM
GI50 (OVCAR-3 ovarian): 16.5 µM
TGI (OVCAR-3 ovarian): 36.3 µM
GI50 (NCI-H460 lung): 59 µM
TGI (NCI-H460 lung): > 100 µM
GI50 (A498 renal): 7.45 µM
TGI (A498 renal): 32.4 µM
GI50 (HCT-15 colon): 16.1 µM
TGI (HCT-15 colon): 38.1 µM
GI50 (TK-10 renal): 15.2 µM
TGI (TK-10 renal): 58 µM
GI50 (MOLT-4 leukemia): 4.28 µM
TGI (MOLT-4 leukemia): 24.6 µM
GI50 (EKVX NSCLC): 6.38 µM
TGI (EKVX NSCLC): 21.6 µM
GI50 (UACC-62 melanoma): 16.6 µM
TGI (UACC-62 melanoma): 30.4 µM
GI50 (SK-MEL-28 melanoma): 12.7 µM
TGI (SK-MEL-28 melanoma): 26.6 µM

COc1ccc(/C=C/NC=O)cc1
TGI (HS 578T breast): > 100 µM
TGI (OVCAR-3 ovarian): > 100 µM
TGI (NCI-H460 lung): > 100 µM
TGI (A498 renal): > 100 µM
TGI (HCT-15 colon): > 100 µM
TGI (TK-10 renal): > 100 µM
TGI (MOLT-4 leukemia): > 100 µM
TGI (EKVX NSCLC): > 100 µM
TGI (UACC-62 melanoma): > 100 µM
TGI (SK-MEL-28 melanoma): > 100 µM

CC(C)Nc1ncc2cc(Oc3ccc(F)cc3F)c(=O)n(C)c2n1
GI50 (HS 578T breast): 11.6 µM
TGI (HS 578T breast): > 25 µM
GI50 (OVCAR-3 ovarian): > 25 µM
TGI (OVCAR-3 ovarian): > 25 µM
GI50 (NCI-H460 lung): > 25 µM
TGI (NCI-H460 lung): > 25 µM
GI50 (A498 renal): 5.39 µM
TGI (A498 renal): > 25 µM
GI50 (HCT-15 colon): > 25 µM
TGI (HCT-15 colon): > 25 µM
GI50 (TK-10 renal): 15.8 µM
TGI (TK-10 renal): > 25 µM
GI50 (MOLT-4 leukemia): > 25 µM
TGI (MOLT-4 leukemia): > 25 µM
GI50 (UACC-62 melanoma): > 25 µM
TGI (UACC-62 melanoma): > 25 µM
GI50 (SK-MEL-28 melanoma): > 25 µM
TGI (SK-MEL-28 melanoma): > 25 µM

CS(=O)(=O)OCCN(CCOS(C)(=O)=O)c1ccc(C=O)cc1
TGI (HS 578T breast): 58 µM
TGI (OVCAR-3 ovarian): 28.5 µM
TGI (NCI-H460 lung): 3.36 µM
TGI (A498 renal): 4.43 µM
TGI (HCT-15 colon): 47.4 µM
TGI (TK-10 renal): 17 µM
TGI (MOLT-4 leukemia): 4.84 µM
TGI (EKVX NSCLC): 25.4 µM
TGI (UACC-62 melanoma): 14.5 µM
TGI (SK-MEL-28 melanoma): 52.6 µM

CNCCCNCCCN1C(=O)c2ccc3c4c(ccc(c24)C1=O)C(=O)N(CCCNCc1ccccc1OC)C3=O
GI50 (HS 578T breast): 3.02 µM
TGI (HS 578T breast): 28.5 µM
GI50 (OVCAR-3 ovarian): 1.37 µM
TGI (OVCAR-3 ovarian): 9.23 µM
GI50 (NCI-H460 lung): 0.429 µM
TGI (NCI-H460 lung): 2.86 µM
GI50 (A498 renal): 1.54 µM
TGI (A498 renal): 8.91 µM
GI50 (HCT-15 colon): 2.36 µM
TGI (HCT-15 colon): 12.2 µM
GI50 (TK-10 renal): 2.58 µM
TGI (TK-10 renal): 14.1 µM
GI50 (MOLT-4 leukemia): 0.534 µM
TGI (MOLT-4 leukemia): 3.55 µM
GI50 (UACC-62 melanoma): 1.52 µM
TGI (UACC-62 melanoma): 3.51 µM
GI50 (SK-MEL-28 melanoma): 1.01 µM
TGI (SK-MEL-28 melanoma): 2.79 µM

COc1ccc(-c2csc(NC(=O)c3cc(O)c(O)c(O)c3)n2)cc1
GI50 (HS 578T breast): 19.3 µM
TGI (HS 578T breast): > 33.3 µM
GI50 (OVCAR-3 ovarian): 12.2 µM
TGI (OVCAR-3 ovarian): > 33.3 µM
GI50 (NCI-H460 lung): 7.5 µM
TGI (NCI-H460 lung): > 33.3 µM
GI50 (A498 renal): 9.61 µM
TGI (A498 renal): > 33.3 µM
GI50 (HCT-15 colon): 6.63 µM
TGI (HCT-15 colon): > 33.3 µM
GI50 (TK-10 renal): 6.36 µM
TGI (TK-10 renal): > 33.3 µM
GI50 (MOLT-4 leukemia): 2.3 µM
TGI (MOLT-4 leukemia): > 33.3 µM
GI50 (UACC-62 melanoma): 5.87 µM
TGI (UACC-62 melanoma): > 33.3 µM
GI50 (SK-MEL-28 melanoma): 13.2 µM
TGI (SK-MEL-28 melanoma): > 33.3 µM

Cn1c(=O)c(Oc2ccccc2)cc2cnc(NC3CCOCC3)nc21
GI50 (HS 578T breast): > 25 µM
TGI (HS 578T breast): > 25 µM
GI50 (OVCAR-3 ovarian): > 25 µM
TGI (OVCAR-3 ovarian): > 25 µM
GI50 (NCI-H460 lung): > 25 µM
TGI (NCI-H460 lung): > 25 µM
GI50 (A498 renal): > 25 µM
TGI (A498 renal): > 25 µM
GI50 (HCT-15 colon): > 25 µM
TGI (HCT-15 colon): > 25 µM
GI50 (TK-10 renal): > 25 µM
TGI (TK-10 renal): > 25 µM
GI50 (MOLT-4 leukemia): > 25 µM
TGI (MOLT-4 leukemia): > 25 µM
GI50 (UACC-62 melanoma): > 25 µM
TGI (UACC-62 melanoma): > 25 µM
GI50 (SK-MEL-28 melanoma): > 25 µM
TGI (SK-MEL-28 melanoma): > 25 µM

Cc1cc(=O)oc2cc(OS(C)(=O)=O)ccc12
TGI (HS 578T breast): > 100 µM
TGI (OVCAR-3 ovarian): > 100 µM
TGI (NCI-H460 lung): > 100 µM
TGI (A498 renal): > 100 µM
TGI (HCT-15 colon): > 100 µM
TGI (TK-10 renal): > 100 µM
TGI (EKVX NSCLC): > 100 µM
TGI (UACC-62 melanoma): > 100 µM
TGI (SK-MEL-28 melanoma): > 100 µM

N#Cc1c(N)nc(N2CCOCC2)c(C#N)c1-c1ccccc1Cl
GI50 (HS 578T breast): 23.6 µM
TGI (HS 578T breast): > 100 µM
GI50 (OVCAR-3 ovarian): 17.3 µM
TGI (OVCAR-3 ovarian): 87.1 µM
GI50 (NCI-H460 lung): 26.8 µM
TGI (NCI-H460 lung): > 100 µM
GI50 (A498 renal): 2.28 µM
TGI (A498 renal): 25.2 µM
GI50 (HCT-15 colon): 41.4 µM
TGI (HCT-15 colon): > 100 µM
GI50 (MOLT-4 leukemia): 34.2 µM
TGI (MOLT-4 leukemia): > 100 µM
GI50 (EKVX NSCLC): 37.6 µM
TGI (EKVX NSCLC): > 100 µM
GI50 (UACC-62 melanoma): 18.9 µM
TGI (UACC-62 melanoma): > 100 µM
GI50 (SK-MEL-28 melanoma): 33.6 µM
TGI (SK-MEL-28 melanoma): > 100 µM

COc1cc(OC)c(C(=O)/C=C/c2cccc(OC(C)=O)c2)cc1CC=C(C)C
GI50 (HS 578T breast): > 50 µM
TGI (HS 578T breast): > 50 µM
GI50 (OVCAR-3 ovarian): 3.44 µM
TGI (OVCAR-3 ovarian): 12.6 µM
GI50 (NCI-H460 lung): 6.57 µM
TGI (NCI-H460 lung): 17.8 µM
GI50 (A498 renal): 16.9 µM
TGI (A498 renal): > 50 µM
GI50 (HCT-15 colon): 5.74 µM
TGI (HCT-15 colon): 14.4 µM
GI50 (TK-10 renal): 23.6 µM
TGI (TK-10 renal): > 50 µM
GI50 (MOLT-4 leukemia): 7.64 µM
TGI (MOLT-4 leukemia): 43.6 µM
GI50 (EKVX NSCLC): 30.2 µM
TGI (EKVX NSCLC): > 50 µM
GI50 (SK-MEL-28 melanoma): 9.52 µM
TGI (SK-MEL-28 melanoma): 22.2 µM
